Data: ChEMBL document CHEMBL1201862, “PubChem BioAssay data set” (2004)
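Following 48 hours of exposure in 96-well plates, responses at five concentrations were used to interpolate endpoints linearly. Here, GI50 denotes the concentration required for 50% inhibition of growth.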 Active and inactive are the calls of the source. Cut-off read from the data, not from the text of the source: active = GI50 up to about 1.1 µM and inactive = higher.

Columns and labels:
Assay in all cases: NCI tumour cell line growth inhibition, 48 h
MDA-MB-231 = system: MDA-MB-231
TK-10 = system: TK-10
UACC-257 = system: UACC-257
T47D = system: T47D
OVCAR-3 = system: OVCAR-3
SW-620 = system: SW-620
DU-145 = system: DU-145
U-251 = system: U-251
CCRF-CEM = system: CCRF-CEM
SF-295 = system: SF-295
CAKI-1 = system: CAKI-1
OVCAR-4 = system: OVCAR-4
KM12 = system: KM12
OVCAR-8 = system: OVCAR-8
K562 = system: K562
SK-MEL-28 = system: SK-MEL-28
UO-31 = system: UO-31
HOP-62 = system: HOP-62
SK-MEL-2 = system: SK-MEL-2
MOLT-4 = system: MOLT-4

Compound | GI50 (MDA-MB-231) | GI50 (TK-10) | GI50 (UACC-257) | GI50 (T47D) | GI50 (OVCAR-3) | GI50 (SW-620) | GI50 (DU-145) | GI50 (U-251) | GI50 (CCRF-CEM) | GI50 (SF-295) | GI50 (CAKI-1) | GI50 (OVCAR-4) | GI50 (KM12) | GI50 (OVCAR-8) | GI50 (K562) | GI50 (SK-MEL-28) | GI50 (UO-31) | GI50 (HOP-62) | GI50 (SK-MEL-2) | GI50 (MOLT-4)
C[C@]12CC[C@H](O)C[C@@H]1CC[C@@H]1[C@@H]2CC[C@]2(C)[C@@H](c3cc(C(F)(F)F)[nH]n3)CC[C@@H]12 | 6.67 µM (inactive) | 6.07 µM (inactive) | 5.69 µM (inactive) | 5.26 µM (inactive) | 10.1 µM (inactive) | 12.1 µM (inactive) | 10.9 µM (inactive) | 7.01 µM (inactive) | 0.957 µM (active) | 4.23 µM (inactive) | 13.2 µM (inactive) | 6.64 µM (inactive) | 10.1 µM (inactive) | 5.35 µM (inactive) | 3.25 µM (inactive) | 13.1 µM (inactive) | 1.51 µM (inactive) | 7.38 µM (inactive) | 16.2 µM (inactive) | 3.95 µM (inactive)
CCSc1c(C)c2c(n(Cc3ccc(OC)cc3)c1=O)Cc1ccccc1C2 | 20.7 µM (inactive) | 27.2 µM (inactive) | 13.3 µM (inactive) | 30.5 µM (inactive) | 20.1 µM (inactive) | 15.5 µM (inactive) | 24.7 µM (inactive) | 15 µM (inactive) | 2.02 µM (inactive) | 32.1 µM (inactive) | 44 µM (inactive) | 21.4 µM (inactive) | 25.1 µM (inactive) | 14.9 µM (inactive) | 16.5 µM (inactive) | 92.7 µM (inactive) | 12.4 µM (inactive) | 23.1 µM (inactive) | 8.3 µM (inactive) | 2.53 µM (inactive)
CNC(c1ccncc1)C(NC)c1ccncc1 (stereo not given) | > 100 µM (inactive) | > 100 µM (inactive) | > 100 µM (inactive) | > 100 µM (inactive) | > 100 µM (inactive) | > 100 µM (inactive) | > 100 µM (inactive) | > 100 µM (inactive) | > 100 µM (inactive) | > 100 µM (inactive) | > 100 µM (inactive) | > 100 µM (inactive) | > 100 µM (inactive) | > 100 µM (inactive) | > 100 µM (inactive) | > 100 µM (inactive) | > 100 µM (inactive) | > 100 µM (inactive) | > 100 µM (inactive) | > 100 µM (inactive)
O=C1c2ccccc2NC(=S)[C@@H]2CCCN12 | > 100 µM (inactive) | > 100 µM (inactive) | > 100 µM (inactive) | > 100 µM (inactive) | > 100 µM (inactive) | > 100 µM (inactive) | > 100 µM (inactive) | > 100 µM (inactive) | > 100 µM (inactive) | > 100 µM (inactive) | > 100 µM (inactive) | > 100 µM (inactive) | > 100 µM (inactive) | > 100 µM (inactive) | > 100 µM (inactive) | > 100 µM (inactive) | > 100 µM (inactive) | > 100 µM (inactive) | > 100 µM (inactive) | > 100 µM (inactive)
CC1=C(/C=C/C(C)=C/C=C/C(C)=C/C(=O)O)C(C)(C)CCC1 [TRETINOIN] | 50.4 µM (inactive) | 71.8 µM (inactive) | 62.4 µM (inactive) | 2.55 µM (inactive) | 46.6 µM (inactive) | 45.8 µM (inactive) | 55.3 µM (inactive) | 51.3 µM (inactive) | 44.3 µM (inactive) | 54.8 µM (inactive) | > 70.6 µM (inactive) | > 70 µM (inactive) | 42.3 µM (inactive) | > 65.3 µM (inactive) | 39.4 µM (inactive) | 53.8 µM (inactive) | > 64.3 µM (inactive) | 49.9 µM (inactive) | 28.9 µM (inactive) | 43.6 µM (inactive)
CC(C)(Br)C(=O)C(Br)Br | 5.56 µM (inactive) | 9.04 µM (inactive) | 9.84 µM (inactive) | 6.22 µM (inactive) | 6.89 µM (inactive) | 1.89 µM (inactive) | 33.7 µM (inactive) | > 28 µM (inactive) | 1.51 µM (inactive) | 18.7 µM (inactive) | 1.95 µM (inactive) | 5.09 µM (inactive) | 16.8 µM (inactive) | 5.27 µM (inactive) | 2.95 µM (inactive) | 9.04 µM (inactive) | 17.5 µM (inactive) | > 42.3 µM (inactive) | 13 µM (inactive) | 1.67 µM (inactive)
C=CCSC1=N/C(=C\c2ccc(OC)cc2)C(=O)N1CC=C | 37.2 µM (inactive) | 45.2 µM (inactive) | 23.2 µM (inactive) | 16.2 µM (inactive) | 45.9 µM (inactive) | 35.2 µM (inactive) | 42.2 µM (inactive) | 24.3 µM (inactive) | 16.6 µM (inactive) | 35.3 µM (inactive) | 50.5 µM (inactive) | 28.2 µM (inactive) | 21.9 µM (inactive) | 36.2 µM (inactive) | 23.7 µM (inactive) | 42.5 µM (inactive) | 34.3 µM (inactive) | 74.6 µM (inactive) | 29.6 µM (inactive) | 13.7 µM (inactive)
c1ccc2cc(NCNc3ccc4ccccc4c3)ccc2c1 | 2.51 µM (inactive) | 21.7 µM (inactive) | 8.73 µM (inactive) | 15.7 µM (inactive) | 5.69 µM (inactive) | 34.2 µM (inactive) | 14.4 µM (inactive) | 23.3 µM (inactive) | 11.8 µM (inactive) | 15.2 µM (inactive) | 17.9 µM (inactive) | 12.5 µM (inactive) | 13.6 µM (inactive) | 17.5 µM (inactive) | 0.951 µM (active) | 34.8 µM (inactive) | 13.7 µM (inactive) | 19.5 µM (inactive) | 8.17 µM (inactive) | 0.785 µM (active)
N[C@H]1c2c(Br)sc(Br)c2C(=O)[C@H]1O | 18.7 µM (inactive) | 96.8 µM (inactive) | 14.2 µM (inactive) | 21.9 µM (inactive) | 7.36 µM (inactive) | 6.41 µM (inactive) | 20.3 µM (inactive) | 14.4 µM (inactive) | 2.72 µM (inactive) | 21.7 µM (inactive) | 0.214 µM (active) | 11.4 µM (inactive) | 34.9 µM (inactive) | 12.9 µM (inactive) | 3.44 µM (inactive) | 10.3 µM (inactive) | 20.3 µM (inactive) | 18.2 µM (inactive) | 23.9 µM (inactive) | 5.14 µM (inactive)
CCN(CC)Cc1nc2sc3c(c2c(=O)n1-c1ccccc1)CCCC3 | 15.3 µM (inactive) | 16.4 µM (inactive) | 21.2 µM (inactive) | 18.8 µM (inactive) | 17.2 µM (inactive) | 16.7 µM (inactive) | 23 µM (inactive) | 16.9 µM (inactive) | 28.4 µM (inactive) | 23.7 µM (inactive) | 19.7 µM (inactive) | 15.6 µM (inactive) | 46.3 µM (inactive) | 17.5 µM (inactive) | 35.2 µM (inactive) | 35.4 µM (inactive) | 11.2 µM (inactive) | 27.4 µM (inactive) | 19.1 µM (inactive) | 17.4 µM (inactive)
COc1cc(C)c(/C=C/C(=O)N2C(=O)OC[C@@H]2c2ccccc2)c(C)c1 | > 100 µM (inactive) | > 100 µM (inactive) | 88.7 µM (inactive) | 23.2 µM (inactive) | > 100 µM (inactive) | > 100 µM (inactive) | 37.6 µM (inactive) | > 100 µM (inactive) | 61.8 µM (inactive) | > 100 µM (inactive) | > 100 µM (inactive) | 81.3 µM (inactive) | 61.9 µM (inactive) | 40.2 µM (inactive) | 78.9 µM (inactive) | > 100 µM (inactive) | > 100 µM (inactive) | > 100 µM (inactive) | > 100 µM (inactive) | 31.1 µM (inactive)
COc1ccc(-n2cnc3c(NC(CCSC)C(=O)O)ncnc32)cc1 (stereo not given) | > 100 µM (inactive) | > 100 µM (inactive) | > 100 µM (inactive) | > 100 µM (inactive) | > 100 µM (inactive) | > 100 µM (inactive) | > 100 µM (inactive) | > 100 µM (inactive) | > 100 µM (inactive) | > 100 µM (inactive) | > 100 µM (inactive) | > 100 µM (inactive) | > 100 µM (inactive) | > 100 µM (inactive) | > 100 µM (inactive) | > 100 µM (inactive) | > 100 µM (inactive) | > 100 µM (inactive) | > 100 µM (inactive) | > 100 µM (inactive)
COC(=NCCC1=CCCCC1)OC | > 100 µM (inactive) | > 100 µM (inactive) | 39.3 µM (inactive) | 32.9 µM (inactive) | > 100 µM (inactive) | 62.8 µM (inactive) | > 100 µM (inactive) | 71.3 µM (inactive) | 8.71 µM (inactive) | > 100 µM (inactive) | > 100 µM (inactive) | > 100 µM (inactive) | 78.9 µM (inactive) | 75.7 µM (inactive) | 36 µM (inactive) | 44.7 µM (inactive) | 53 µM (inactive) | > 100 µM (inactive) | 87.7 µM (inactive) | 52.2 µM (inactive)
COc1ccccc1/C=C1\Sc2scc(-c3ccc(O)c(O)c3)[n+]2C1=O | 20 µM (inactive) | 28.5 µM (inactive) | 26.3 µM (inactive) | 16.3 µM (inactive) | 16.6 µM (inactive) | 15.9 µM (inactive) | 21.4 µM (inactive) | 27.8 µM (inactive) | 2.57 µM (inactive) | 24.9 µM (inactive) | 15.1 µM (inactive) | 26.8 µM (inactive) | 32 µM (inactive) | 39.9 µM (inactive) | 9.51 µM (inactive) | 18.2 µM (inactive) | 18.7 µM (inactive) | 29.7 µM (inactive) | 17.2 µM (inactive) | 13.9 µM (inactive)
